Test results from patent US7741124B2, “Detection procedures for fibrinogen and/or fibrinogen derivatives” (priority 2003, dated 2010).

Assays:
Assay type in all cases: biochemical
[1] = target: T1, thrombin (Bos taurus, UniProt P00735); test: Inhibitory concentration 50% (IC50) of heparin against thrombin, FIFTA turbidity without Polybrene; details: FIFTA system without Polybrene
T1 construct: 100 μl 200 mIU/ml thrombin in 6% BSA-PBS (without Polybrene®)
Description: 50 μl 100% Pool were added to 10 μl 0-160 IU/ml heparin. 100 μl 200 mIU/ml thrombin in 6% BSA-PBS (without Polybrene®) were added and the increase in absorbance at 405 nm was followed.

[2] = target: T1, thrombin; test: Inhibitory time point 50% (ITP50) of 10 IU/ml heparin-thrombin interaction; details: 10 IU/ml final heparin
Description: 50 μl P-Pool were incubated with 100 μl 200 miU/ml thrombin in 6% BSA-PBS (without Polybrene®). At 0 min (prior to thrombin addition) and 0.5-11 min reaction time (at RT) 10 μl 160 IU/ml heparin in 6% BSA-PBS was added (final heparin conc. in plasma+thrombin reagent=10 IU/ml; this heparin conc. increased the absorbance by 20 mA; all test results were corrected by this heparin induced turbidity increase). The turbidity increase at 405 nm was determined immediately after each heparin addition step and as a function of incubation time.
To determine the heparin addition time point (at RT) that is needed to decrease the 5 min, 10 min, 15 min or 20 min turbidity increase by 50% (inhibitory time point 50%=ITP), 50 μl P-Pool were incubated with 100 μl 200 mIU/ml thrombin in 6% BSA-PBS (without Polybrene®). After 0 s (prior to thrombin addition) and 10-140 s (in 10 s intervals) 10 μl 160 IU/ml heparin in 6% BSA-PBS were added. The turbidity increase at 405 nm as a function of incubation time (3-20 min) was determined.

[3] = test system: fibrinogen; test: FIATA (vancomycin reactivity) of chloramine-T oxidized / EDTA-supplemented plasma; details: EDTA-plasmas oxidized at 10-20 mM chloramine-T
Description: To 25 μl plasma 50 μl PBS are added and the absorbance (405 nm) is determined (base value). Then 50 μl 4.4 mM vancomycin in PBS are added. The absorbance at 405 nm is determined after 2 min, if the reaction is performed at room temperature (23° C.). If the reaction is performed at 37° C., the second value is determined after 1 min. A microtiterplate reader (Milenia, DPC, Los Angeles, USA) is used. The increase in absorption (ΔA) is determined and the results are standardized against a pooled plasma of known, preferably of 100% of norm, fibrinogen-concentration, and against 0.9% NaCl (zero-value of turbidity) (Table 2).
(§1) 25 μl P-Pool or P-Pool supplemented with 8.6 mM (3.2 g/l) EDTA were incubated with 25 μl 0-89 mM chloramine-T® in PBS for 60 min at RT. Then the FIATA and the FIFTA were performed. For the FIATA, 25 μl PBS were added and the absorbance at 405 nm was determined (base value). 50 μl 4.4 mM vancomycin in PBS were added and after 1 min (RT) the absorbance at 405 nm was determined again (Table 1). […] 100% control=P-Pool without oxidant.
(§2) 25 μl P-Pool was incubated with 25 μl PBS or with 25 μl 2 mM CT in PBS. After 60 min RT, 25 μl 0-172 mM EDTA in PBS was added. After 5 min RT the FIATA and the FIFTA were performed as indicated in 2.7.

[4] = target: T2, fibrinogen (Homo sapiens, UniProt P02671+P02675+P02679); test: FIFTA of chloramine-T oxidized / EDTA-supplemented plasma; details: 60 min RT, P-Pool and EDTA supplemented P-Pool; read-out: chloramine-T concentration that inactivates 50% of fibrinogen in the FIFTA
T2 construct: pooled patient plasma (P-Pool, n=32 single plasmas); from tissue; host or cells: pooled citrated patient plasma (P-Pool, Fbgen-Pool-Plasma)
T2 sequence (P02671 20-644 isoform P02671-2 limits assumed): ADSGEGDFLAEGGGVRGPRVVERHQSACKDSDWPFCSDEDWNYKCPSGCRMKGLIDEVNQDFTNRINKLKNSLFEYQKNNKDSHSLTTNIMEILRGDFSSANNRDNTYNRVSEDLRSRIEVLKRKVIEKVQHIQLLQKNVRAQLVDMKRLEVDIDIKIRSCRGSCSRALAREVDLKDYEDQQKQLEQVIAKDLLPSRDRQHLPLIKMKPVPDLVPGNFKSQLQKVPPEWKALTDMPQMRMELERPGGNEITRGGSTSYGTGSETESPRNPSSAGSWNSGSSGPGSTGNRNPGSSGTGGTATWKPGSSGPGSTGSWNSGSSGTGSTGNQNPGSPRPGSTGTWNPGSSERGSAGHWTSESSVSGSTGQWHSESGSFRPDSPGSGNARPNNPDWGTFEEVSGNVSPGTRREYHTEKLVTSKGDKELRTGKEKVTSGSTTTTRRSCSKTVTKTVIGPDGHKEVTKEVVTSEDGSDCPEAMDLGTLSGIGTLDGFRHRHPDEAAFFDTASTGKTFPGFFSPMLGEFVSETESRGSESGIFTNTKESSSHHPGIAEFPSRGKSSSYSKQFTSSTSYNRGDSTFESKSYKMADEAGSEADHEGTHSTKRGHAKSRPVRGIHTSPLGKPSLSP
T2 sequence (P02675 31-491): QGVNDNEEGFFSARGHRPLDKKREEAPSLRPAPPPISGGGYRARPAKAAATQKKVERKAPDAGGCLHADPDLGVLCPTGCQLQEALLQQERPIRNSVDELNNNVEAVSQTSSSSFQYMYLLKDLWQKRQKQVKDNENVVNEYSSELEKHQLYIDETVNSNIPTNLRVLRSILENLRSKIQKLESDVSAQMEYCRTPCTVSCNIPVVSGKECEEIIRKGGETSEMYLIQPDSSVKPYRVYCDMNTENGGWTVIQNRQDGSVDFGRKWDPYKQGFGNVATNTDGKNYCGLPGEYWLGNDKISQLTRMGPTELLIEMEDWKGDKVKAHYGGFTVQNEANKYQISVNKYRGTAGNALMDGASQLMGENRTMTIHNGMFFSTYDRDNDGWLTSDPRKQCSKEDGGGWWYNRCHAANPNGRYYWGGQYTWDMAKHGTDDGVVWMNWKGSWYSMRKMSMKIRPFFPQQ
T2 sequence (P02679 27-437 isoform P02679-2 limits assumed): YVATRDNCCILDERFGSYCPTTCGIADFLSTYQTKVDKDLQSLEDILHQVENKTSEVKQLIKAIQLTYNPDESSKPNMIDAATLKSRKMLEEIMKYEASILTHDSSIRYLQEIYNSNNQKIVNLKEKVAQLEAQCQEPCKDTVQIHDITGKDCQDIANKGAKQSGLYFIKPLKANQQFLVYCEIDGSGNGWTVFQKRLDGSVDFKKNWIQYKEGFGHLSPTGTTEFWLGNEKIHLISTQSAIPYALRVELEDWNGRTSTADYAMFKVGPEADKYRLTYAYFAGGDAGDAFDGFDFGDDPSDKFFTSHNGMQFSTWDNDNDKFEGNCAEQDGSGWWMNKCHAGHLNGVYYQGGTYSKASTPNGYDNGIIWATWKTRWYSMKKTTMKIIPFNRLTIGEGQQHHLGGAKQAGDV
Description: The absorption at 405 nm is immediately measured (base value) and exactly after 5 min, if the reaction is performed at room temperature (23° C.). If the reaction is performed at 37° C., the second value is measured after 2 min. A microtiterplate reader (Milenia, DPC, Los Angeles, USA) is used. The increase in absorption (ΔA) is determined and the results are standardized against a pooled plasma of known, preferably of 100% of norm, fibrinogen-activity (Table 1).
as §1, §2

[5] = target: T3, fibrinogen in human plasma (Homo sapiens, UniProt P02671+P02675+P02679); test: Inactivation of fibrinogen by vancomycin or chloramine-T (FIFTA read-out); details: 15 min 37° C. incubation in plasma, then FIFTA; read-out: IC50 against plasmatic fibrinogen
T3 construct: 200 μl of 256% of norm active fibrinogen in P-Pool; from tissue; host or cells: pooled citrated human patient plasma (P-Pool / Fbgen-Pool)
T3 sequence (P02671 20-629 isoform P02671-2 limits assumed): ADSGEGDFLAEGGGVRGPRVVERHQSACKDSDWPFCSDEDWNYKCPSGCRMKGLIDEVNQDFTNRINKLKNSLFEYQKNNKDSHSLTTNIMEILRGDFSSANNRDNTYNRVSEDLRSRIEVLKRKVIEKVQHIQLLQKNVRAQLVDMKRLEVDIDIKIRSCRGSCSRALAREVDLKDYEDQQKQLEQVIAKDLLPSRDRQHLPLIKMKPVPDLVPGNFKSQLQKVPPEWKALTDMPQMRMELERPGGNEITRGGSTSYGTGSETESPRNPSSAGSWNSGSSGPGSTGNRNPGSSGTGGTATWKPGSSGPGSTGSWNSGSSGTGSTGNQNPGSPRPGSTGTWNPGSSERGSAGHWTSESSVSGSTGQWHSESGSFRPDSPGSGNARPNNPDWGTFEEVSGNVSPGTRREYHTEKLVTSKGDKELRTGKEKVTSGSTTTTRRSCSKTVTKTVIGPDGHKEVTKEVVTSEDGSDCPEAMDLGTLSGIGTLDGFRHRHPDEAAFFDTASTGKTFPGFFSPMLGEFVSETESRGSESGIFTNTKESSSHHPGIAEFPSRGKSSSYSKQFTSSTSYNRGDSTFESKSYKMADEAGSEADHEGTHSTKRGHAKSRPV
T3 sequence (P02675 31-491): T2 sequence (P02675 31-491)
T3 sequence (P02679 27-437 isoform P02679-2 limits assumed): T2 sequence (P02679 27-437 isoform P02679-2 limits assumed)
Description: 200 μl of 256% of norm active fibrinogen in P-Pool were incubated with 25 μl 0-100 mM vancomycin or 0-100 mM chloramine-T® in aqua dest. for 15 min (37° C.). 50 μl samples of these reaction mixtures were withdrawn and incubated with 100 μl 200 mIU/ml thrombin, 400 μg/ml Polybrene®, 6% BSA-PBS. The results were standardized by simultaneous analysis of 144% of norm active fibrinogen in P-Pool.

## heparin
[1]
  heparin concentrations that completely inhibit thrombin: ≥ 0.63 IU/ml
[2]; RT
  time window in which heparin can inhibit fibrin generation: ≤ 2 min
[2]; ΔA at 5-20 min incubation time (RT)
  time point of heparin addition that results into a 50% decrease of ΔA (ITP50): approximately 30 s

## Cc1ccc(S(=O)(=O)[N-]Cl)cc1.[Na+] [chloramine-T®, chloramine-T]
[3]
  increase of reactivity with vancomycin, % of the citrate control value: 40%
[4]
  IC50: 2000 µM
[5]
  IC50: ~2000 µM
